Measurements: ChEMBL document CHEMBL3769363, “Discovery of trace amine-associated receptor 1 ligands by molecular docking screening against a homology model” (Medchemcomm, 2015)
The source made the active and inactive calls. The calls are words filed in the database; no cut-off is given here.

Experiments:
[1] = target: T1, Trace amine-associated receptor 1 (Homo sapiens, UniProt Q96RJ0); test: Agonist activity at human TAAR1 receptor expressed in HEK293T cells cotransfected with beta-2 receptor assessed as cAMP production by BRET assay; format: functional, cell-based, HEK-293T
T1 sequence (Q96RJ0 whole entry): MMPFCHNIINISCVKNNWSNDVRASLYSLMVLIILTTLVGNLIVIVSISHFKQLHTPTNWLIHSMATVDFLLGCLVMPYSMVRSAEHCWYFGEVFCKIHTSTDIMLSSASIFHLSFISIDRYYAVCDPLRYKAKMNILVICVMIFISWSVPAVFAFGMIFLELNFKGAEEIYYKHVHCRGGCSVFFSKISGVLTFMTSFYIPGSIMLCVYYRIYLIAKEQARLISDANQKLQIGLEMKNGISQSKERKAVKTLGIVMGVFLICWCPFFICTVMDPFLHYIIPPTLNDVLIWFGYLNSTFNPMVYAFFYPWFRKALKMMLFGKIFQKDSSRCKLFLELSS

[2] = target: T2, Trace amine-associated receptor 1 (Homo sapiens) (UniProt Q96RJ0); test: Agonist activity at human TAAR1 receptor expressed in HEK293T cells cotransfected with beta-2 receptor assessed as cAMP production by BRET assay relative to beta-PEA; format: functional, cell-based; design: concentration or dose not given beside the values; details: HEK-293T
T2 sequence (whole entry): T1 sequence (Q96RJ0 whole entry)

[3] = target: T2, Trace amine-associated receptor 1 (Homo sapiens); test: Antagonist activity at human TAAR1 receptor expressed in HEK293T cells cotransfected with beta-2 receptor assessed as inhibition of beta-PEA-induced cAMP production at 100 uM by BRET assay; format: functional, cell-based; details: HEK-293T
[4] = target: T2, Trace amine-associated receptor 1 (Homo sapiens); test: Agonist activity at human TAAR1 receptor expressed in HEK293T cells cotransfected with beta-2 receptor assessed as cAMP production at 100 uM by BRET assay; format: functional, cell-based; details: HEK-293T

N=C(N)N/N=C/c1ccc2c(c1)OCO2
EC50 [1]: > 100 µM
Activity [2]: 6.9%

NCCc1ccccc1 [PHENETHYLAMINE]
EC50 [1]: 0.11 µM

NC(N)=N/N=C/c1cccc(OCc2ccccc2)c1
EC50 [1]: > 100 µM

CN(Cc1ccc(Br)cc1)Cc1cccc(C(N)=O)c1
Activity [3]: Active

COc1ccc2[nH]cc(CN(C)C)c2c1
Activity [4]: Active

N=C(N)N/N=C/c1cccc(Br)c1
Activity [2]: -5.4%

Cn1c(C2CCCCN2)nc2ccccc21 (centres undefined)
EC50 [1]: > 100 µM
Activity [2]: 38.4%

COc1cccc(/C=N/N=C(N)N)c1
EC50 [1]: 1.23 µM

NC(N)=N/N=C/c1cccc(Br)c1
EC50 [1]: > 100 µM

COc1cccc(/C=N/NC(=N)N)c1
Activity [4]: Active
Activity [2]: 24%
Activity [3]: Active

CN(Cn1ncc2cc([N+](=O)[O-])ccc21)[C@@H]1CCc2ccccc21
Activity [4]: Active

C[C@@H](CNCCO)c1ccccc1
Activity [4]: Active

c1ccc2sc(C3CCCN3)nc2c1 (centres undefined)
EC50 [1]: > 100 µM
Activity [2]: 42.9%

c1ccc2c(c1)nnn2C[C@H]1CCCN1
Activity [4]: Active

N=C(N)N/N=C/c1ccccc1
EC50 [1]: 0.17 µM
Activity [2]: 85.5%

N=C(N)N/N=C1\CCCc2ccccc21
Activity [3]: Active

N=C(N)N/N=C/c1cccc(OCc2ccccc2)c1
Activity [2]: 75%

N=C(N)N/N=C/c1c(Cl)cccc1Cl [GUANABENZ]
EC50 [1]: 0.09 µM
Activity [2]: 35.5%

Clc1ccc(CNCc2ccc(Cn3cncn3)cc2)c(Cl)c1
Activity [3]: Active

Cc1cccc(CCN(C)C[C@H](O)c2ccccc2)c1
EC50 [1]: 51.6 µM
Activity [4]: Active
Activity [2]: 67.5%

Cn1c(C2CCCN2)nc2ccccc21 (centres undefined)
EC50 [1]: 18.1 µM
Activity [4]: Active
Activity [2]: 55.8%

C=CCn1cc(CN[C@H](C)Cn2ccc3ccccc32)c(C)n1
Activity [3]: Active

N=C(N)c1cccc(COc2ccccc2)c1
Activity [3]: Active

CC(C)n1c(C2CCCN2)nc2ccccc21 (centres undefined)
EC50 [1]: 12.1 µM
Activity [2]: 43.4%

CCC(=O)/N=C(\N)Nc1nc2ccccc2o1
Activity [3]: Active

CCn1c(C2CCCN2)nc2ccccc21 (centres undefined)
EC50 [1]: > 100 µM
Activity [2]: 22.1%

Fc1ccc2c(CCNCc3cnn(-c4ccccc4)c3)c[nH]c2c1
Activity [3]: Active

CNCc1nc2ccccc2n1C(F)F
Activity [4]: Active

Cn1c(CN)nc2ccccc21
EC50 [1]: > 100 µM
Activity [2]: 21.6%

C#CCN[C@H](C)Cc1ccccc1
Activity [4]: Active
